Measured values from ChEMBL document CHEMBL5096151, “Phytocannabinoid Pharmacology: Medicinal Properties of Cannabis sativa Constituents Aside from the "Big Two"” (J Nat Prod, 2021).

Key:
[1] = target: T1, Transient receptor potential cation channel subfamily V member 1 (Homo sapiens, UniProt Q8NER1); experiment: Agonist activity at ionomycin-stimulated TRPV1 (unknown origin) activation assessed as efficacy relative to control
[2] = target: T1, Transient receptor potential cation channel subfamily V member 1; experiment: Agonist activity at ionomycin-stimulated TRPV1 (unknown origin) channel desensitization in presence of capsaicin
[3] = target: T2, Transient receptor potential cation channel subfamily V member 2 (Homo sapiens) (UniProt Q9Y5S1); experiment: Agonist activity at ionomycin-stimulated TRPV2 (unknown origin) activation assessed as efficacy relative to control; settings: filed as agonist
T2 sequence (whole entry): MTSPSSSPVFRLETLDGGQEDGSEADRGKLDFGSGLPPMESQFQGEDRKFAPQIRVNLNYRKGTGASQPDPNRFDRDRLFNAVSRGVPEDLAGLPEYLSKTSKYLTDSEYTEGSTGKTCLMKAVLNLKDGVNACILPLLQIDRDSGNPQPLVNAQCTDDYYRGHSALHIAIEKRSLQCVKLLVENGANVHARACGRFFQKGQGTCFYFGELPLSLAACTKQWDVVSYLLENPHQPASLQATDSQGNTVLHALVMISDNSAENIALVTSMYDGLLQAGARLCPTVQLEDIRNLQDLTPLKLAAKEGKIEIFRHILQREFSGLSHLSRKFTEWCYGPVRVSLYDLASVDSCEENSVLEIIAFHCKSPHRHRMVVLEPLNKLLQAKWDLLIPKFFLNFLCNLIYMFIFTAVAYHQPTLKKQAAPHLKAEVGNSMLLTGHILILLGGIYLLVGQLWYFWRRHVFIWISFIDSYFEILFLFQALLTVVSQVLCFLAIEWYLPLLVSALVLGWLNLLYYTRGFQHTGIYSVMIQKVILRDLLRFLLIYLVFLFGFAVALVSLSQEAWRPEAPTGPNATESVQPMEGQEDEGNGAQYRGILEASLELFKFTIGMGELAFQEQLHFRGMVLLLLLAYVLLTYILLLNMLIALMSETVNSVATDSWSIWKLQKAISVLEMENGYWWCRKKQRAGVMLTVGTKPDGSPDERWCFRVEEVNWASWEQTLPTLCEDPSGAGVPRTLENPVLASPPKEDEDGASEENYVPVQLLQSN

[4] = target: T3, Transient receptor potential cation channel subfamily V member 2 (Homo sapiens, UniProt Q9Y5S1); experiment: Agonist activity at ionomycin-stimulated TRPV2 (unknown origin) channel desensitization in presence of lysophosphatidylcholine
T3 sequence (Q9Y5S1 whole entry): T2 sequence (whole entry)

[5] = target: Transient receptor potential cation channel subfamily V member 4 (Homo sapiens, UniProt Q9HBA0); experiment: Agonist activity at ionomycin-stimulated TRPV4 (unknown origin) activation
[6] = target: Transient receptor potential cation channel subfamily A member 1 (Homo sapiens, UniProt O75762); experiment: Agonist activity at TRPA1 (unknown origin) channel desensitization in presence of isothiocyanate
Transient receptor potential cation channel subfamily A member 1, sequence (O75762 whole entry): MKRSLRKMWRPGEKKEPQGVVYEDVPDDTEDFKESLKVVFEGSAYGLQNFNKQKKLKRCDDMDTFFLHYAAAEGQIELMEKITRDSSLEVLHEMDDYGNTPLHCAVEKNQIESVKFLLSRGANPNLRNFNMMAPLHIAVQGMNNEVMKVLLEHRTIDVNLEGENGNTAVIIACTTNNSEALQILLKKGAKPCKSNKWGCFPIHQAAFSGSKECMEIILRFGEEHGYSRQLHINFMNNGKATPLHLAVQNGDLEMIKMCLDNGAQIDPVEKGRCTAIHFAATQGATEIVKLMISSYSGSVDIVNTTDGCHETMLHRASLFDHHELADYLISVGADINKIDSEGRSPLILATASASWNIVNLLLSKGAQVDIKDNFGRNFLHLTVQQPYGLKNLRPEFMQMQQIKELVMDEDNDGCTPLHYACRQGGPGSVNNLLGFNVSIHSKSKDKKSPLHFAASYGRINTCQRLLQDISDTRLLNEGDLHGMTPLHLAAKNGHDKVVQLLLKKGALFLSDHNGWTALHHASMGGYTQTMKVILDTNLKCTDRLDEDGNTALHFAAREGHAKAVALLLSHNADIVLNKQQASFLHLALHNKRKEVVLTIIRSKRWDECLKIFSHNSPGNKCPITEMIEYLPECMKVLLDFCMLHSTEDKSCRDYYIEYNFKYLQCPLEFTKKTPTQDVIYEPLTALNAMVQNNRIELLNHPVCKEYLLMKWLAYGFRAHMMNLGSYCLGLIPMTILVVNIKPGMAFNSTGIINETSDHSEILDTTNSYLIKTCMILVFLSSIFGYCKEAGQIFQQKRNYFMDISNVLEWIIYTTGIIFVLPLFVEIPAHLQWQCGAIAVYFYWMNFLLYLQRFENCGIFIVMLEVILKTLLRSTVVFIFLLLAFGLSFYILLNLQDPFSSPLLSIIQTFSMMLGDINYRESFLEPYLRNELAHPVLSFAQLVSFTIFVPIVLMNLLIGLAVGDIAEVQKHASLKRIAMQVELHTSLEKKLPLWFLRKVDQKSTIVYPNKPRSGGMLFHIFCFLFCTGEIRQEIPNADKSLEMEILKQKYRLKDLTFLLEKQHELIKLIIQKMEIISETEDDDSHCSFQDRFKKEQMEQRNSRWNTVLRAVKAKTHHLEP

[7] = target: G-protein coupled receptor 6 (Homo sapiens, UniProt P46095); experiment: Binding affinity to human GPR6 expressed in HEK293 cells assessed as reduction in cAMP level incubated for 1 hr by HTRF assay; format: cell-based
G-protein coupled receptor 6, sequence (P46095 whole entry): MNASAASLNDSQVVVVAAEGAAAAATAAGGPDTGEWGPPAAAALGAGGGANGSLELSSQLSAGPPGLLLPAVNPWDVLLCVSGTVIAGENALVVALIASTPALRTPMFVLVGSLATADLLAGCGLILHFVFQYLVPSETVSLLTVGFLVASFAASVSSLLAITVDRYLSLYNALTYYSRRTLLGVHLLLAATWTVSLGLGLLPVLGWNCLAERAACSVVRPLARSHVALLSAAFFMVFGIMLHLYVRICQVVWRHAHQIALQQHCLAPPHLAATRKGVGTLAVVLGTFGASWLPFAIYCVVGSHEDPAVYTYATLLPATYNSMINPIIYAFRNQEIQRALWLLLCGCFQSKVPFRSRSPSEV

[8] = target: Transient receptor potential cation channel subfamily M member 8 (Homo sapiens, UniProt Q7Z2W7); experiment: Antagonist activity at TRPM8 (unknown origin) desensitization in presence of icilin
Transient receptor potential cation channel subfamily M member 8, sequence (Q7Z2W7 whole entry): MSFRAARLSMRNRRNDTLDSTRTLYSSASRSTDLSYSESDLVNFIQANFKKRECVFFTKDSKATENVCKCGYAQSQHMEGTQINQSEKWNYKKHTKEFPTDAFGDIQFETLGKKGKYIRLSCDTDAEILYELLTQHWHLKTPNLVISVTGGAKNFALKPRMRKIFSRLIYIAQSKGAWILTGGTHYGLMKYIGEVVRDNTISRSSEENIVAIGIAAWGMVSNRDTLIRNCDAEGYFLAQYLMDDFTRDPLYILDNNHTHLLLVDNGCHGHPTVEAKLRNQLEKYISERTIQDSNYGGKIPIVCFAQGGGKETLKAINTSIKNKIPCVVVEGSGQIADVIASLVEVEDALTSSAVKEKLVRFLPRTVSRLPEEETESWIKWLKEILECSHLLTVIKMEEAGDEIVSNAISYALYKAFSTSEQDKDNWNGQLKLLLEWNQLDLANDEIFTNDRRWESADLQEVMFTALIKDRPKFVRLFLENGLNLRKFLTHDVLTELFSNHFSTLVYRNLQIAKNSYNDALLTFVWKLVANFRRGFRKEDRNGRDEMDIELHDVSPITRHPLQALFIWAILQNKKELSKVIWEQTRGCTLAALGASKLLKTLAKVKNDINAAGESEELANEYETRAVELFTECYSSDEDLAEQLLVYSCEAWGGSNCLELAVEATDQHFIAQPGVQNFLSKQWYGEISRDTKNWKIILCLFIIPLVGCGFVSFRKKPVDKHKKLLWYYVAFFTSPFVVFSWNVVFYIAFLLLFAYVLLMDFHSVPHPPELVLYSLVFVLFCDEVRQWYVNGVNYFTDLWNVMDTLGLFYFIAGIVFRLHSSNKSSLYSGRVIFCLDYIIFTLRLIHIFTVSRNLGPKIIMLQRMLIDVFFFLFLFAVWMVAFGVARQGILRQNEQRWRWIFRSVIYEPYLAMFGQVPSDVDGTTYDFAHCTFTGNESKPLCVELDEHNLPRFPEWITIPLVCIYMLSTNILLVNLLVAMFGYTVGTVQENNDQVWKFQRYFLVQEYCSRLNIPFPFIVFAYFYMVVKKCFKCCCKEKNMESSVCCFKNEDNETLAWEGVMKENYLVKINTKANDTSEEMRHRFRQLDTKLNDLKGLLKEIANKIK

[9] = target: Cytochrome P450 1A1 (Homo sapiens, UniProt P04798); experiment: Inhibition of recombinant CYP1A1 (unknown origin) preincubated with NADPH for 20 mins and measured after 30 min; format: ADME
Cytochrome P450 1A1, sequence (P04798 whole entry): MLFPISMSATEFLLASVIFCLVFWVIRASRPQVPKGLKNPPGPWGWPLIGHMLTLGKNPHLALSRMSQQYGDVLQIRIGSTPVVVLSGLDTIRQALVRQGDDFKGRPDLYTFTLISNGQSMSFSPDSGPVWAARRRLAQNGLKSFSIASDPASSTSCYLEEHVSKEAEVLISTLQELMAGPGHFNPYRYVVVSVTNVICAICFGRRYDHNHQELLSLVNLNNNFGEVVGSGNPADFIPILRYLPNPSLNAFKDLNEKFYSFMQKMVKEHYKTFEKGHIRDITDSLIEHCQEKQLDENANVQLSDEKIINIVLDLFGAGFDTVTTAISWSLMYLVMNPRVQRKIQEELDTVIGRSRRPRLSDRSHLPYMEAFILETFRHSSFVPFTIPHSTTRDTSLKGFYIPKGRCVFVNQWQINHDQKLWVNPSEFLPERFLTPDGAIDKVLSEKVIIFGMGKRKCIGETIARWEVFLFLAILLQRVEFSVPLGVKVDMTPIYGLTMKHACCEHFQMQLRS

[10] = target: T4, Cytochrome P450 2B6 (Homo sapiens, UniProt P20813); experiment: Mixed inhibition of recombinant CYP2B6 (unknown origin) using coumarin as substrate in presence of NADPH-generating system by Lineweaver-burk plots analysis; format: ADME
T4 sequence (P20813 whole entry): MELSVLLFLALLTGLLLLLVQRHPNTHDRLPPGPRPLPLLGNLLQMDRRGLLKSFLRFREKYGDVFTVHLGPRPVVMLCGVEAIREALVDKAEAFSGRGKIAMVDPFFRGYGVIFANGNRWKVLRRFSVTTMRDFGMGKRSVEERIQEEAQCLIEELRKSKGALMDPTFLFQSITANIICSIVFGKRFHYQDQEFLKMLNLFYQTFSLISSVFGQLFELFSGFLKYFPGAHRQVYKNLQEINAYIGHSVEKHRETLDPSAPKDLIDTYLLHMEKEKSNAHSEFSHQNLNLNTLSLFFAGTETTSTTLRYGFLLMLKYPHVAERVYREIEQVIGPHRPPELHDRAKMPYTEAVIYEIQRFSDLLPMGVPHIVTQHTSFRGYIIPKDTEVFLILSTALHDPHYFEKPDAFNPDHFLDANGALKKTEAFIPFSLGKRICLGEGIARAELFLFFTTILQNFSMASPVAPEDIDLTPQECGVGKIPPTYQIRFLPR

[11] = target: T5, Cytochrome P450 2D6 (Homo sapiens, UniProt P10635); experiment: Inhibition of CYP2D6 in human liver microsomes in presence of NADPH-generating system incubated for 20 mins; format: ADME, Microsome
T5 sequence (P10635 whole entry): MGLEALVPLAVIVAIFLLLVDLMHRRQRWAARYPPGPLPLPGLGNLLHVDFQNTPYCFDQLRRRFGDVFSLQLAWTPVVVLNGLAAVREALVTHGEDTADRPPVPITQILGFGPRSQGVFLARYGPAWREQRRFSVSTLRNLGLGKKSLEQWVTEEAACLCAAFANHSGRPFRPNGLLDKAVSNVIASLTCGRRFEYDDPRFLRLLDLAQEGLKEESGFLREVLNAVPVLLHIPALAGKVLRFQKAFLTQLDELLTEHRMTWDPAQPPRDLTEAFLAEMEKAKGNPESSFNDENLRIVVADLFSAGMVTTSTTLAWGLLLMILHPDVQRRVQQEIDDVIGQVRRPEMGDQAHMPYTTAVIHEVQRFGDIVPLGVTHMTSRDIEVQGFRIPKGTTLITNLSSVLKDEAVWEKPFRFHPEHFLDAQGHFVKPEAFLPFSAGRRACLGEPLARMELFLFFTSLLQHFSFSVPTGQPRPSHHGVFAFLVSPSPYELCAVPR

[12] = target: T5, Cytochrome P450 2D6; experiment: Inhibition of CYP2D6 in human liver microsomes by measuring inhibition constant in presence of NADPH-generating system incubated for 20 mins; format: ADME, Microsome

T1 sequence (Q8NER1 whole entry): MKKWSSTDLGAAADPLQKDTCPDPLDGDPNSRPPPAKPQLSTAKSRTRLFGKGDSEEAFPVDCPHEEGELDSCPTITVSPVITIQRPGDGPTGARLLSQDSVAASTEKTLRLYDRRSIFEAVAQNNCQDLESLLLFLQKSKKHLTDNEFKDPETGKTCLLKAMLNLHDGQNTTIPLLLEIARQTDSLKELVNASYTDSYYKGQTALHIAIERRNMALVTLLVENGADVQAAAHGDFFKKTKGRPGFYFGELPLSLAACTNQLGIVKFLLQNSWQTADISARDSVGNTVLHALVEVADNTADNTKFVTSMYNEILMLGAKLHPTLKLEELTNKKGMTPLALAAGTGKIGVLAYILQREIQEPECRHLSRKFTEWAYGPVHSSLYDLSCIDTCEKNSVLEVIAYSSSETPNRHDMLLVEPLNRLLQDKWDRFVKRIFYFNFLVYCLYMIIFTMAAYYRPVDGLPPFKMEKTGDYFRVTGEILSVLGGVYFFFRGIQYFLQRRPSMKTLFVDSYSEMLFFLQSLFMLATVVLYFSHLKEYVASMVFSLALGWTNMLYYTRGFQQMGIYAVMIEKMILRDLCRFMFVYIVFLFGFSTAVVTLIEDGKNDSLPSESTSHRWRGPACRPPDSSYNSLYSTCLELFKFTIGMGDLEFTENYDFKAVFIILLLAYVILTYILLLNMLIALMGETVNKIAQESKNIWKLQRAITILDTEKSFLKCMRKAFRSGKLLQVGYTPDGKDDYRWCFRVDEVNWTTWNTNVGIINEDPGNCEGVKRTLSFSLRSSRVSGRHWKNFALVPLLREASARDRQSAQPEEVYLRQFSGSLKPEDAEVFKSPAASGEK

SMILES: C=C(C)[C@@H]1CCC(C)=C[C@H]1c1c(O)cc(CCC)cc1O [CANNABIDIVARIN]
- Efficacy [1]: 21%
- IC50 [2]: 10000 nM
- Efficacy [3]: 50%
- IC50 [4]: 31000 nM
- EC50 [5]: 900 nM
- IC50 [6]: 1300 nM
- EC50 [7]: 2400 nM
- IC50 [8]: 900 nM
- IC50 [9]: 60 nM
- Ki [10]: 1300 nM
- IC50 [11]: 10200 nM
- Ki [12]: 5800 nM
